“And” between values parts separate entries of the source, which are not always exact repeats. Equal values may be shown once. Read-outs that look alike come from different tables or passages of the source.
Experiments:
[1] = test system: HIF-2α; assay: Western blot of treated 786-0 cells: HIF-2α; format: cell-based, human; details: 786-0 CCRCC cells, 24 hours
Description: Western blots were performed to determine the effects of the compounds on levels of HIF-2α and other relevant proteins. 786-0 (pVHL deficient clear cell kidney cancer cells) were purchased from ATCC were plated at 1×10E5 cells/well in 2 ml DMEM with 10% FBS/well in 6-well tissue culture plates. Cells were allowed to adhere overnight in a humidified incubator at 37° C. with 5% CO2, after which the appropriate concentrations of compounds in DMSO were added. DMSO concentrations were kept constant in all wells. After 24 hour's exposure to the compounds, cells were lysed and subjected to western blotting according to standard protocols (Polek, Talpaz et al. 2003). Antibodies for HIF-2α and Glyceraldehyde 3-Phosphate Dehydrogenase (GAPDH) were purchased from Cell Signaling Technology (Danvers, Mass.), whereas antibodies to iron responsive element binding protein 2 (IRP2) and Glutathione Peroxidase 4 (GPX4) were from Santa Cruz Biotechnology (Dallas, Tex.) and R&D Systems, Inc (Minneapolis, Minn.). Representative data in FIG. 3 show a dose-dependent effect of compounds in decreasing HIF-2α. Compounds also impact cellular iron sensing given by increased IRP2, which taken together indicate that cells sense decreased amounts of available iron. Representative data shown in FIG. 5 Part C show a dose dependent effect of the compounds on GPX4, which may indicate decreased resistance to ferroptosis.

[2] = test system: 786-0 CCRCC cells; assay: ICP-MS of cellular iron, zinc and copper; format: cell-based, human; details: 786-0 cells, 24 hours, 1.5 μM KD002 or KD021, 2.5 μM KD025HCl, versus DMSO
Description: These studies were performed to determine the content of iron and other transition metals in cells after exposure the compounds described herein. 786-0 cells were seeded at 1.5 million cells/flask in T75 cm^2 flasks in DMEM+10% FBS, and allowed to adhere overnight. Cells were then treated with indicated concentrations of compounds in DMSO or DMSO alone (vehicle) for a further 24 hours, after which cells were detached by trypsinization, counted, washed twice in PBS and pelleted. Experiments were performed using three replicate T75 cm^2 flasks per condition. A 5:1 mixture of nitric acid (OPTIMA Grade, 70%, Fisher Scientific) and ultrapure hydrogen peroxide (ULTREX II, 30%, Fisher Scientific) was added to cell pellets. This mixture was allowed to digest overnight, heated until dry, and resuspended in 2% nitric acid for analysis using an Agilent 7900 ICP-MS (Agilent Technologies, Santa Clara, Calif.). Calibration standard solutions for determination of Fe were prepared from Agilent multi-element calibration standard-2A. An Agilent Environmental Calibration Standard was used as an independent control. PBS-only control digestions were used to measure background. Metal readings were normalized to cell number. Data obtained from these studies for three replicate readings (with SEM) are shown in FIG. 4, which show an increase in cellular iron (Fe) content after treatment with indicated compounds.

[3] = Bioavailability determination of KD025HCl in mice (plasma levels after IV or PO); format: in vivo; details: for concentration at 0.08 h / concentration at 0.25 h / concentration at 0.5 h: male, Swiss albino, mouse, iv
Description: To determine the bioavailability KD025HCl, serum concentrations of KD025HCl were determined after varying durations following oral or intravenous (IV) administration. Doses were validated by LC/MS/MS.
For IV administration, 264 μl of N-Methyl-2-Pyrrolidone (NMP) was added to 1.221 mg of KD025HCl, and the solution vortexed and sonicated until complete dissolution. Then, 2.374 ml of 10% (v/v) solutol in water for injection was added, and the solution vortexed, then sonicated with a bath sonicator. The final dosing formulation of a brownish colored clear solution. A single 2 mg/kg dose (5 ml/kg) was administered IV each to nine male Swiss albino mice.
For oral administration (PO), […] of Tween-80 was added to 3.38 mg of KD025HCl, triturated, then 2.893 ml of 0.5% methyl cellulose was added in parts with continuous trituration then vortexed. The final dosing formulation was a brownish colored clear solution. A single 10 mg/kg dose (10 ml/kg) was administered PO each to nine male Swiss albino mice.
Calibration Curve & QC preparation: 2.0 μl of calibration curve standards were added to […] of blank matrix and precipitated with 200 μl of Acetonitrile containing an internal standard at 200 ng/ml. The solution was vortexed for 5 min at 850 rpm, then centrifuged at 4000 rpm for 5 min at 4° C. 110 μl of the supernatant was obtained and diluted with 130 μl of (Methanol:water, 1:1 v/v). Sample Preparation: 50 μl of sample was precipitated with 200 μl of Acetonitrile containing the internal standard at 200 ng/ml. The mixture was vortexed for 5 min at 850 rpm, then centrifuged at 4000 rpm for 5 min at 4° C. 110 μL of supernatant was obtained and diluted with 130 μL of (Methanol:water, 1:1 v/v).
Using this procedure, the plasma levels of KD025HCl after either IV or PO administration was determined, and bioavailability as well as other pharmacokinetic parameters were determined and shown in Table 6.

[4] = IV 2.00 mg/kg, 24.00 h, Swiss albino mice, BLQ: Below limits of quantitation
[5] = IV 2.00 mg/kg, Swiss albino mice, plasma

- Plasma concentration, individual animals (M1-, M2-, M3-) ([3]; IV 2.00 mg/kg, 0.08 h, Swiss albino mice, 2 mg/kg): 3949.80 ng/mL and 3776.46 ng/mL
- Plasma concentration, individual animals (M1-, M2-, M3-) ([3]; IV 2.00 mg/kg, 0.25 h, Swiss albino mice, 2 mg/kg): 2069.26 ng/mL and 3078.66 ng/mL
- Plasma concentration, individual animals (M1-, M2-, M3-) ([3]; IV 2.00 mg/kg, 0.50 h, Swiss albino mice, 2 mg/kg): 1527.09 ng/mL and 2079.24 ng/mL
- Plasma concentration, individual animals (M1-, M2-, M3-) ([3]; IV 2.00 mg/kg, 4.00 h, Swiss albino mice, 2 mg/kg): 31.51 ng/mL and 45.40 ng/mL
- Plasma concentration, Mean [3, 4]: BLQ
- Plasma concentration, individual animals (M1-, M2-, M3-) [3, 4]: BLQ
- AUCExtra [3, 5]: 1.15%
- Co [3, 5]: 5481.64 ng/mL
- Plasma concentration, individual animals (M1-, M2-, M3-) ([3]; PO 10.00 mg/kg, 0.50 h, Swiss albino mice, 10 mg/kg): 1712.09 ng/mL and 2056.44 ng/mL
- Plasma concentration, individual animals (M1-, M2-, M3-) ([3]; PO 10.00 mg/kg, 1.00 h, Swiss albino mice, 10 mg/kg): 784.84 ng/mL and 1081.06 ng/mL
- Plasma concentration, individual animals (M1-, M2-, M3-) ([3]; PO 10.00 mg/kg, 2.00 h, Swiss albino mice, 10 mg/kg): 861.31 ng/mL and 1052.53 ng/mL
- Plasma concentration, individual animals (M1-, M2-, M3-) ([3]; PO 10.00 mg/kg, 6.00 h, Swiss albino mice, 10 mg/kg): 93.52 ng/mL and 126.29 ng/mL
- Plasma concentration, individual animals (M1-, M2-, M3-) ([3]; PO 10.00 mg/kg, 8.00 h, Swiss albino mice, 10 mg/kg): 50.78 ng/mL and 99.61 ng/mL
- Plasma concentration, Mean ([3]; PO 10.00 mg/kg, 24.00 h, Swiss albino mice, BLQ: Below limits of quantitation): BLQ
- Plasma concentration, individual animals (M1-, M2-, M3-) ([3]; PO 10.00 mg/kg, 24.00 h, Swiss albino mice, BLQ: Below limits of quantitation, 10 mg/kg): BLQ
- AUCExtra ([3]; PO 10.00 mg/kg, Swiss albino mice, plasma): 9.83%
- concentration at 0.08 h ([3]; plasma, 2 mg/kg, IV 2.00 mg/kg, 0.08 h, read-out: Plasma concentration, Mean): 4170 ng/mL
- concentration at 0.08 h ([3]; plasma, 2 mg/kg, IV 2.00 mg/kg, 0.08 h, read-out: Plasma concentration, individual animals (M1-, M2-, M3-)): 4790 ng/mL
- concentration at 0.25 h ([3]; plasma, 2 mg/kg, IV 2.00 mg/kg, 0.25 h, read-out: Plasma concentration, Mean): 2340 ng/mL
- concentration at 0.25 h ([3]; plasma, 2 mg/kg, IV 2.00 mg/kg, 0.25 h, read-out: Plasma concentration, individual animals (M1-, M2-, M3-)): 1860 ng/mL
- concentration at 0.5 h ([3]; plasma, 2 mg/kg, IV 2.00 mg/kg, 0.50 h, read-out: Plasma concentration, Mean): 1700 ng/mL
- concentration at 0.5 h ([3]; plasma, 2 mg/kg, IV 2.00 mg/kg, 0.50 h, read-out: Plasma concentration, individual animals (M1-, M2-, M3-)): 1480 ng/mL
SMILES: COc1ccc(-c2nnc(Nc3nc4c(OC)nccc4[nH]3)o2)cc1OC [KD025HCl, N-(4-Methoxy-1H-imidazo[4,5-c]pyridin-2-yl)-5-(3,4-dimethoxyphenyl)-1,3,4-oxadiazol-2-amine]
- HIF-2α protein relative to GAPDH (western blot) [1]: decreases
- cellular copper (Cu) content (ICP-MS) [2]: increases
- cellular iron (Fe) content (ICP-MS) [2]: increases
- cellular zinc (Zn) content (ICP-MS) [2]: increases
- Plasma concentration, individual animals (M1-, M2-, M3-) ([3]; IV 2.00 mg/kg, 1.00 h, Swiss albino mice, 2 mg/kg): 282.26 ng/mL and 11135.53 ng/mL and 952.05 ng/mL
- Plasma concentration, individual animals (M1-, M2-, M3-) ([3]; IV 2.00 mg/kg, 2.00 h, Swiss albino mice, 2 mg/kg): 277.23 ng/mL and 334.05 ng/mL and 611.15 ng/mL
- Plasma concentration, individual animals (M1-, M2-, M3-) ([3]; IV 2.00 mg/kg, 8.00 h, Swiss albino mice, 2 mg/kg): 11.09 ng/mL and 28.55 ng/mL and 16.02 ng/mL
- Plasma concentration, individual animals (M1-, M2-, M3-) ([3]; PO 10.00 mg/kg, 0.25 h, Swiss albino mice, 10 mg/kg): 1609.45 ng/mL and 742.75 ng/mL and 1428.60 ng/mL
- Plasma concentration, individual animals (M1-, M2-, M3-) ([3]; PO 10.00 mg/kg, 4.00 h, Swiss albino mice, 10 mg/kg): 179.52 ng/mL and 94.08 ng/mL and 235.20 ng/mL
